Drawing on EP0357134B1, “Antihypertensive 3-piperidinyl-indazole derivatives” (priority 1988, dated 1990), this text covers ED50 for 13 compounds.

Holding throughout (type): in vivo
The test system of experiment [1] is adult male Wistar rats. Nature of the experiment: Combined test in rats: apomorphine (APO) test. To be noted: Rattus norvegicus, 0.5 h, read-out: Combined test in rats, ED₅₀ in mg/kg (APO). The procedure: (§1) The experimental animals used in this test were adult male Wistar rats (weight 240 ± 10g). After an overnight fast, the animals were treated subcutaneously or orally with an aqueous solution of the compound under investigation (1ml/100g body weight) (time = zero) and put in isolated observation cages. […] At the end of this 1 hour period (time = 90 minutes) the same animals were injected intravenously with 40 mg/kg of tryptamine (TRY) and the presence of the typical tryptamine-induced bilateral tonic seizures and hyperaemia of the ears was noted. Two hours after pretreatment (time = 120 minutes) finally, the same animals were challenged with 1.25 mg/kg intravenously of norephinephrine (NOR) and possible mortality was looked for up to 60 minutes later.
(§2) The table 4 gives the ED₅₀-values of a number of the compounds under consideration. As used herein, the ED₅₀-value represents the dose which protects 50% of the animals from apomorphine-, tryptamine- or norepinephrine-induced phenomena.

Experiment [2] concerns adult male Wistar rats. Nature of the experiment: Combined test in rats: tryptamine (TRY) test. The settings on record: Rattus norvegicus, 1.5 h, compound subcutaneously or orally, 40 mg/kg tryptamine i.v. at 90 minutes, read-out: Combined test in rats. As to the method:
as §1, §2

The subject of experiment [3] is adult male Wistar rats. Nature of the experiment: Combined test in rats: norepinephrine (NOR) test. To be noted: Rattus norvegicus; protection from norepinephrine-induced mortality; compound subcutaneously or orally; 1.25 mg/kg norepinephrine i.v. at 120 minutes, observed up to 60 minutes; read-out: Combined test in rats; ED₅₀ in mg/kg (NOR). The procedure: as §1, §2

The subject of experiment [4] is beagle dogs. Nature of the experiment: The apomorphine test in dogs (APO-dog). To be noted: Canis lupus familiaris, 1 h; dose protecting 50% of animals from emesis; compound subcutaneously or orally; 0.31 mg/kg (s.c.) apomorphine one hour thereafter; read-out: (APO)-dog test, ED₅₀ in mg/kg. The procedure: The method used is described by P.A.J. Janssen and C.J.E. Niemegeers in Arzneim.-Forsch. (Drug Res.), 9,765-767 (1959). The compounds listed in table 4 were administered subcutaneously or orally to beagle dogs at different doses and the animals were challenged one hour thereafter with a standard dose of 0.31 mg/kg (s.c.) of apomorphine.
The table 4 gives the ED₅₀-values of a number of the compounds under consideration. As used herein, the ED₅₀ value represents the dose which protects 50% of the animals from emesis.

Setting [5] is: protection from tryptamine-induced bilateral tonic seizures, ED₅₀ in mg/kg (TRY)-convulsions.
[6] abbreviates: protection from tryptamine-induced hyperaemia of the ears, ED₅₀ in mg/kg (TRY)-hyperaemia.
The mark [7] stands for this setting: dose protecting 50% of animals from apomorphine-induced agitation and stereotypic chewing, compound subcutaneously or orally, 1.25 mg/kg apomorphine hydrochloride i.v. at 30 minutes.

As to `Cc1nc2n(c(=O)c1CCN1CCC(c3n[nH]c4cc(F)ccc34)CC1)CCS2` [Compound 2, 6-[2-[4-(6-fluoro-1H-indazol-3-yl)-1-piperidinyl]ethyl]-2,3-dihydro-7-methyl-5H-thiazolo[3,2-a]pyrimidin-5-one], the ED50 in experiment [1] was 5 mg/kg; in experiment [2] (setting [5]) it was 5 mg/kg; in experiment [2] (setting [6]), 0.005 mg/kg; in experiment [3], 0.31 mg/kg; in experiment [4], 0.002 mg/kg.
Consider `Cc1nc2ccccn2c(=O)c1CCN1CCC(c2nn(-c3ccc(F)cc3)c3cc(F)ccc23)CC1` [Compound 9], for which the ED50 was greater than 10 mg/kg in experiment [1], 5 mg/kg in experiment [2] (setting [5]), 0.08 mg/kg in experiment [2] (setting [6]) and 5 mg/kg in experiment [3].
With `Cc1nc2ccccn2c(=O)c1CCN1CCC(c2nn(C)c3cc(F)ccc23)CC1` [Compound 11], the ED50 in experiment [1] is 5 mg/kg; in experiment [2] (setting [5]), 0.31 mg/kg; in experiment [2] (setting [6]), 0.005 mg/kg; in experiment [3], 0.08 mg/kg; in experiment [4] it was 0.12 mg/kg.
As for `Cc1nc2n(c(=O)c1CCN1CCC(c3n[nH]c4cc(F)ccc34)CC1)CCCC2` [Compound 13], the ED50 in experiment [1] is greater than 10 mg/kg; in experiment [2] (setting [5]) it was 1.25 mg/kg; in experiment [2] (setting [6]), 0.02 mg/kg; in experiment [3], 0.31 mg/kg; in experiment [4], 0.015 mg/kg.
In the case of `Cc1nc2sccn2c(=O)c1CCN1CCC(c2nn(-c3ccc(F)cc3)c3cc(F)ccc23)CC1` [Compound 16], the ED50 was greater than 10 mg/kg in experiment [1], 5 mg/kg in experiment [2] (setting [5]), 0.08 mg/kg in experiment [2] (setting [6]) and greater than 10 mg/kg in experiment [3].
Turning to `Cc1nc2sccn2c(=O)c1CCN1CCC(c2n[nH]c3cc(F)ccc23)CC1` [Compound 17], the ED50 in experiment [1] was 5 mg/kg; in experiment [2] (setting [5]), 5 mg/kg; in experiment [2] (setting [6]) it was 0.03 mg/kg; in experiment [3], 2 mg/kg; in experiment [4], 0.004 mg/kg.
Consider `Cc1nc2sccn2c(=O)c1CCN1CCC(c2nn(C)c3cc(F)ccc23)CC1` [Compound 18], for which the ED50 in experiment [1] (setting [7]) amounted to 5 mg/kg; in experiment [2] (setting [5]), 1.25 mg/kg; in experiment [2] (setting [6]), 0.005 mg/kg; in experiment [3], 1.25 mg/kg; in experiment [4], 0.2 mg/kg.
Consider `Cc1nc2scc(C)n2c(=O)c1CCN1CCC(c2nn(-c3ccc(F)cc3)c3cc(F)ccc23)CC1` [Compound 20], for which the ED50 is greater than 10 mg/kg in experiment [1], no less than 10 mg/kg in experiment [2] (setting [5]), 0.08 mg/kg in experiment [2] (setting [6]) and greater than 10 mg/kg in experiment [3].
Turning to `Cc1nc2scc(C)n2c(=O)c1CCN1CCC(c2nn(C)c3cc(F)ccc23)CC1` [Compound 21], the ED50 was 1.25 mg/kg in experiment [1]; 0.08 mg/kg in experiment [2] (setting [5]); 0.005 mg/kg in experiment [2] (setting [6]); 0.31 mg/kg in experiment [3]; 0.12 mg/kg in experiment [4].
Consider `Cc1nc2n(c(=O)c1CCN1CCC(c3nn(C)c4cc(F)ccc34)CC1)CCS2` [Compound 25], for which the ED50 was greater than 10 mg/kg in experiment [1]; 1.25 mg/kg in experiment [2] (setting [5]); 0.01 mg/kg in experiment [2] (setting [6]); 0.31 mg/kg in experiment [3]; less than 0.015 mg/kg in experiment [4].
As to `Cc1nc2c(C)cccn2c(=O)c1CCN1CCC(c2nn(Cc3ccccc3)c3cc(F)ccc23)CC1` [Compound 29], the ED50 in experiment [1] (setting [7]) is 1.25 mg/kg; in experiment [2] (setting [5]) it was 5 mg/kg; in experiment [2] (setting [6]) it was no more than 0.16 mg/kg; in experiment [3], 1.25 mg/kg; in experiment [4] it was 0.004 mg/kg.
As to `COc1ccc(Cn2nc(C3CCN(CCc4c(C)nc5n(c4=O)CCS5)CC3)c3ccc(F)cc32)cc1` [Compound 30, 6-[2-[4-[6-fluoro-1-[(4-methoxyphenyl)methyl]-1H-indazol-3-yl]-1-piperidinyl]ethyl]-2,3-dihydro-7-methyl-5H-thiazolo[3,2-a]pyrimidin-5-one], the ED50 in experiment [1] was greater than 10 mg/kg; in experiment [2] (setting [5]), 10 mg/kg; in experiment [2] (setting [6]) it was 0.08 mg/kg; in experiment [3], 5 mg/kg; in experiment [4], greater than 0.63 mg/kg.
Take `COc1ccc2c(C3CCN(CCc4c(C)nc5sccn5c4=O)CC3)n[nH]c2c1` [Compound 34]: the ED50 is greater than 10 mg/kg in experiment [1] (setting [7]); greater than 10 mg/kg in experiment [2] (setting [5]); 1.25 mg/kg in experiment [2] (setting [6]); 1.25 mg/kg in experiment [3]; greater than 0.01 mg/kg in experiment [4].
